Data: patent publication US20160075653A1, “NEMATICIDAL N-(PHENYLCYCLOALKYL)CARBOXAMIDES AND N-(PHENYLCYCLOALKYL)THIOCARBOXAMIDES” (BAYER CROPSCIENCE AKTIENGESELLSCHAFT, priority 2013, published 2016)
Like-named read-outs stand apart in the source and are kept apart here.

Test: Measurement of log P values by HPLC on reversed phase columns (methods [a] pH 2.3, [b] pH 2.7, [c] pH 7.8)
Type: physicochemical
Settings: for chromatographic logP: reversed phase HPLC columns
Procedure: Measurement of log P-Values:
Measurement of log P Values was Performed According EEC Directive 79/831 Annex V.A8 by HPLC (High Performance Liquid
Chromatography) on reversed phase columns with the following methods: ^[a] Measurement was done at pH 2.3 with 0.1% phosphoric acid and acetonitrile as eluent with a linear gradient from 10% acetonitrile to 95% acetonitrile. ^[b] measurement of LC-MS was done at pH 2.7 with 0.1% formic acid in water and with acetonitrile (contains 0.1% formic acid) as eluent with a linear gradient from 10% acetonitrile to 95% acetonitrile. ^[c] Measurement with LC-MS was done at pH 7.8 with 0.001 molar ammonium hydrogen carbonate solution in water as eluent with a linear gradient from 10% acetonitrile to 95% acetonitrile.
Calibration was done with linear alkan-2-ones (with 3 to 16 carbon atoms) with known log P-values (measurement of log P values using retention times with linear interpolation between successive alkanones). Lambda-max-values were determined using UV-spectra from 200 nm to 400 nm and the peak values of the chromatographic signals.

[1] = pH 2.7, HPLC on reversed phase columns, method [b] (pH 2.7), read-out: logP
[2] = method [b], HPLC reversed phase, pH 2.7
[3] = HPLC on reversed phase columns, method [b], pH 2.7
[4] = HPLC reversed phase, method [b] (pH 2.7)
[5] = HPLC reversed phase, method [c] pH 7.8
[6] = HPLC-MS, method letter not given, read-out: log P
[7] = HPLC on reversed phase column, method [b], pH 2.7

`Cc1nc(C(F)(F)F)c(C(=O)N[C@@H]2CC[C@@H]2c2c(Cl)cccc2Cl)s1` [Example 740] gave a chromatographic logP [1] of 3.6.
For `Cn1cc(C(=O)N(C2CC2)C2CCCCC2c2ccccc2Cl)c(C(F)F)n1` (stereo not shown) [Example 158], the logP [2] was 4.03^[b].
In the case of `O=C(N[C@@H]1CCC[C@@H]1c1ccc(F)c(F)c1)c1ccccc1Cc1ccccc1` (relative stereo) [Example 98], the logP [3] is reported as 4.26^[b].
For `Cc1nn(C)cc1C(=O)NC1CCCCC1c1ccccc1Br` (stereo not shown) [Example 402], the logP [4] was 2.74^[b].
In the case of `O=C(NC1CCCCCC1c1ccccc1C(F)(F)F)c1ccccc1C(F)(F)F` (stereo not shown) [Example 420], the logP [4] is reported as 4.55^[b].
With `Cc1cc(C(=O)N(C2CC2)C2CCCCC2c2ccccc2Cl)c(C)o1` (stereo not shown) [Example 177] the logP [2] was 5.17^[b].
For `O=C(NC1CC1c1ccc(Cl)cc1)c1ccccc1Br` (stereo not shown) [Example 423], the logP [4] was 3.13^[b] and the logP [5] was 3.07^[c];.
Work on `O=C(N[C@@H]1CC[C@@H]1c1c(Cl)cccc1Cl)c1ccccc1Br` [Example 735] yielded a chromatographic logP [1] of 3.6.
With `O=C(N[C@@H]1CC[C@H]1c1ccccc1Cl)c1ccc(Cl)cc1Cl` (relative stereo) [Example 240] the logP [2] was 3.84^[b].
`O=C(N[C@H]1CCC1c1ccccc1C(F)(F)F)c1ccccc1I` (stereo in doubt) [Preparation Example 5, cis-2-iodo-N-{2-[2-(trifluoromethyl)phenyl]cyclobutyl}benzamide] gave a chromatographic logP [6] of 3.44.
For `O=C(NC1CCCCC1c1ccccc1Br)c1cccnc1Cl` (stereo not shown) [Example 413], the logP [4] was 3.25^[b].
In the case of `Cc1nn(C)cc1C(=O)NC1CCCC1c1ccccc1Br` (stereo not shown) [Example 345], the logP [4] is reported as 3.69^[b].
For `Cc1nc(C)c(C(=O)NC2CCCCC2c2c(F)cccc2F)s1` (stereo not shown) [Example 394], the logP [4] was 3.16^[b].
For `Cn1cc(C(=O)N[C@@H]2CCC[C@@H]2c2ccc(F)c(F)c2)c(C(F)F)n1` (relative stereo) [Example 52], the logP [3] was 2.64^[b].
In the case of `O=C(NC1CCC1c1c(F)cccc1F)c1ncc(C(F)(F)F)cc1Cl` (stereo not shown) [Example 228], the logP [2] is reported as 3.61^[b].
With `O=C(N[C@@H]1CC[C@H]1c1ccc(F)cc1C(F)(F)F)c1ccc(Cl)cc1Cl` (relative stereo) [Example 510] the logP [4] was 4.08^[b].
For `Cn1cc(C(=O)N(C2CC2)C2CCCC2c2ccc(Cl)cc2Cl)c(C(F)F)n1` (stereo not shown) [Example 155], the logP [2] was 4.23^[b].
For `CN(C(=O)c1c(C(F)F)nn(C)c1F)C1CCCCC1c1ccccc1` (stereo not shown) [Example 196], the logP [2] was 3.27^[b].
With `O=C(N[C@@H]1CC[C@H]1c1ccc(Cl)cc1C(F)(F)F)c1ncc(C(F)(F)F)cc1Cl` (relative stereo) [Example 700] the logP [7] was 4.65^[b].
In the case of `Cn1cc(C(=O)N[C@@H]2CC[C@H]2c2ccccc2Cl)c(C(F)F)n1` (relative stereo) [Example 262], the logP [4] is reported as 2.72^[b].
Work on `O=C(N[C@@H]1CC[C@@H]1c1c(Cl)cccc1Cl)c1cccnc1C(F)(F)F` [Example 746] yielded a chromatographic logP [1] of 2.95.
With `Cc1nn(C)c(C)c1C(=O)NC1CC1c1ccc(F)cc1` (stereo not shown) [Example 15] the logP [3] was 2.84^[b].
With `O=C(NC1CCCC1c1ccc(Cl)cc1)c1ccccc1I` (stereo not shown) [Example 280] the logP [4] was 3.64^[b].
For `O=C(N[C@@H]1CC[C@H]1c1ccc(Cl)cc1Cl)c1cccnc1` (relative stereo) [Example 662], the logP [7] was 2.58^[b].
For `O=C(NC1CCCC1c1ccccc1C(F)(F)F)c1ccccc1I` (stereo not shown) [Example 285], the logP [4] was 3.81^[b].
Work on `Cn1cc(C(=O)NC2CCC2c2ccc(Cl)cc2Cl)c(C(F)F)n1` (single isomer, unassigned) [Preparation Example 2 cis-Isomer, cis-N-[2-(2,4-dichlorophenyl)cyclobutyl]-3-(difluoromethyl)-1-methyl-1H-pyrazole-4-carboxamide] yielded a chromatographic logP [6] of 2.95.
For `Cc1nn(C)cc1C(=O)NC1CC1c1ccc(Cl)cc1` (stereo not shown) [Example 19], the logP [3] was 2.63^[b].
For `O=C(NC1CCC1c1ccc(F)cc1C(F)(F)F)c1cccc(Cl)c1` (stereo not shown) [Example 477], the logP [4] was 4.02^[b].
With `Cc1ncncc1C(=O)N[C@@H]1CCC[C@@H]1c1ccc(F)c(F)c1` (relative stereo) [Example 65] the logP [3] was 2.15^[b].
With `O=C(N[C@@H]1CC[C@H]1c1cccc(F)c1C(F)(F)F)c1ccccc1Cl` (relative stereo) [Compound 598] the logP [7] was 3.50^[b].
With `Cn1ccc(I)c1C(=O)N[C@@H]1CCC[C@@H]1c1ccc(F)c(F)c1` (relative stereo) [Example 100] the logP [3] was 3.83^[b].
For `O=C(NC1CCCC1c1ccc(Cl)cc1Cl)c1ccccc1Cl` (stereo not shown) [Example 351], the logP [4] was 3.87^[b].
For `O=C(N[C@@H]1CC[C@@H]1c1ccc(Cl)cc1Cl)c1ncc(C(F)(F)F)cc1Cl` (relative stereo) [Example 259], the logP [4] was 4.23^[b].
`O=C(N[C@@H]1CC[C@H]1c1ccc(Cl)cc1C(F)(F)F)c1cccnc1` [Example 732] showed a chromatographic logP [1] of 2.74.
In the case of `O=C(N[C@@H]1CC[C@@H]1c1ccccc1Cl)c1ncc(C(F)(F)F)cc1Cl` (relative stereo) [Example 246], the logP [4] is reported as 3.77^[b].
In the case of `O=C(N[C@@H]1CC[C@H]1c1ccc(Cl)cc1Cl)c1ccccc1[N+](=O)[O-]` (relative stereo) [Example 672], the logP [7] is reported as 3.47^[b].
With `O=C(NC1CCCC1c1ccc(Cl)cc1Cl)c1cccnc1Cl` (stereo not shown) [Example 356] the logP [4] was 3.20^[b].
With `O=C(NC1CCCC1c1c(F)cccc1F)c1c(F)cccc1F` (stereo not shown) [Example 314] the logP [4] was 3.05^[b].
With `O=C(N[C@@H]1CC[C@H]1c1cccc(F)c1C(F)(F)F)c1ccccc1` (relative stereo) [Example 591] the logP [4] was 3.35^[b].
For `Cn1nc(C(F)F)c(C(=O)NC2CCCCC2c2ccccc2)c1F` (stereo not shown) [Example 182], the logP [2] was 3.29^[b].
For `O=C(NC1CCCCC1c1c(F)cccc1F)c1cccnc1Cl` (stereo not shown) [Example 397], the logP [4] was 2.99^[b].
In the case of `O=C(NC1CC1c1ccccc1C(F)(F)F)c1ccccc1C(F)(F)F` (stereo not shown) [Example 233], the logP [2] is reported as 3.29^[b].
In the case of `Cc1ccc(C(=O)N[C@@H]2CCC[C@@H]2c2ccc(F)c(F)c2)c(Cl)n1` (relative stereo) [Example 117], the logP [3] is reported as 2.86^[b].
With `O=C(N[C@@H]1CC[C@@H]1c1ccc(Cl)cc1C(F)(F)F)c1nccnc1Cl` (relative stereo) [Example 717] the logP [3] was 3.24^[b].
For `Cc1nc(C(F)(F)F)c(C(=O)N[C@@H]2CC[C@H]2c2ccccc2C(F)(F)F)s1` (relative stereo) [Example 633], the logP [7] was 3.49^[b].
With `O=C(N[C@@H]1CC[C@H]1c1ccc(Cl)cc1C(F)(F)F)c1ccccc1I` (relative stereo) [Example 677] the logP [7] was 4.20^[b].
For `O=C(NC1CC1c1ccc(Cl)cc1)c1c(F)cc(F)cc1F` (stereo not shown) [Example 466], the logP [4] was 2.80^[b] and the logP [5] was 2.78^[c];.
In the case of `Cn1cc(C(=O)N(C2CC2)C2CCCCC2c2ccccc2)c(C(F)F)n1` (stereo not shown) [Example 138], the logP [2] is reported as 3.60^[b].
For `Cn1cc(C(=O)N(C2CC2)C2CCCCC2c2ccccc2)c(I)n1` (stereo not shown) [Example 145], the logP [2] was 3.60^[b].
In the case of `Cc1nn(C)cc1C(=O)NC1CCCC1c1c(F)cccc1F` (stereo not shown) [Example 324], the logP [4] is reported as 2.13^[b].
For `O=C(NC1CCCCC1c1c(F)cccc1F)c1ccccc1Cl` (stereo not shown) [Example 396], the logP [4] was 3.68^[b].
For `O=C(NC1CCC1c1ccccc1C(F)(F)F)c1ccc(Cl)cc1` (stereo not shown) [Example 429], the logP [4] was 3.56^[b].
With `CC(C)Oc1ccc([C@H]2CCC[C@H]2NC(=O)c2cccnc2Cl)cc1` (relative stereo) [Example 326] the logP [4] was 3.06^[b] and the logP [5] was 2.99^[c];.
For `O=C(NC1CCCC1c1ccccc1Cl)c1ccccc1Cl` (stereo not shown) [Example 294], the logP [4] was 3.42^[b].
With `Cn1cc(C(=O)N[C@@H]2CCC[C@@H]2c2ccc(F)c(F)c2)c(I)n1` (relative stereo) [Example 99] the logP [3] was 2.75^[b].
With `O=C(NC1CCC1c1ccccc1C(F)(F)F)c1ncccc1Br` (stereo not shown) [Example 605] the logP [7] was 3.17^[b] and the logP (HPLC on reversed phase column, method [c], pH 7.8) was 3.10^[c];.
With `Cc1nocc1C(=O)N[C@@H]1CCC[C@@H]1c1ccc(F)c(F)c1` (relative stereo) [Example 61] the logP [3] was 2.69^[b].
For `O=C(NC1CCC1c1ccc(Cl)cc1Cl)c1cccnc1C(F)(F)F` (stereo not shown) [Example 470], the logP [4] was 3.45^[b].
With `CC(C)Oc1ccc([C@H]2CCC[C@H]2NC(=O)c2ccccc2Br)cc1` (relative stereo) [Example 327] the logP [4] was 3.81^[b] and the logP [5] was 3.74^[c];.
In the case of `Cc1nn(C)cc1C(=O)NC1CC1c1ccc(F)cc1` (stereo not shown) [Example 16], the logP [3] is reported as 2.13^[b].
In the case of `Cn1nc(C(F)F)c(C(=O)NC2CCCCC2c2ccccc2)c1F` (stereo not shown) [Example 181], the logP [2] is reported as 3.13^[b].
With `O=C(NC1CCCC1c1ccc(C(F)(F)F)cc1)c1ccccc1I` (stereo not shown) [Example 363] the logP [4] was 3.86^[b] and the logP [5] was 3.79^[c];.
With `Cn1cc(C(=O)N[C@@H]2CC[C@H]2c2cccc(F)c2C(F)(F)F)c(C(F)F)n1` (relative stereo) [Example 644] the logP [7] was 2.99^[b].
For `O=C(NC1CCC1c1ccc(Cl)cc1Cl)c1ccccc1C(F)(F)F` (stereo not shown) [Example 474], the logP [4] was 4.02^[b].
For `O=C(N[C@@H]1CCC[C@H]1c1ccc(F)c(F)c1)c1ccncc1F` (relative stereo) [Example 107], the logP [3] was 2.62^[b].
In the case of `O=C(N[C@@H]1CCC[C@@H]1c1ccc(F)c(F)c1)c1sccc1Cl` (relative stereo) [Example 80], the logP [3] is reported as 3.72^[b].
In the case of `Cc1nc(C(F)(F)F)c(C(=O)N[C@@H]2CC[C@H]2c2cccc(F)c2C(F)(F)F)s1` (relative stereo) [Example 625], the logP [7] is reported as 3.56^[b].
